Assay results published in patent US20100087466A1, “NOVEL SMALL MOLECULE DNAK INHIBITORS” (priority 2008, published 2010).
≈ marks a conversion by molar mass, not a printed value. Counter-ions that a name gives are not always drawn. Like-named read-outs stand apart in the source and are kept apart here. Non-standard residues stand in square brackets, D forms with d. Residues, ends and D or L forms follow the SMILES beside them. *: point of attachment. Phe(4-F) = N[C@@H](Cc1ccc(F)cc1)C(=O)O; Octanoyl = CCCCCCCC(=O)*; Bn = c1ccc(C*)cc1

What was measured:
[1] = biological target: DnaK (Escherichia coli, UniProt P0A6Y8); experiment: DnaK Inhibition Assay (DnaK induced refolding of denatured firefly luciferase); format: biochemical, E. coli; settings: DnaK 200 nM, DnaJ 100 nM, GrpE 400 nM
DnaK, sequence (P0A6Y8 2-638): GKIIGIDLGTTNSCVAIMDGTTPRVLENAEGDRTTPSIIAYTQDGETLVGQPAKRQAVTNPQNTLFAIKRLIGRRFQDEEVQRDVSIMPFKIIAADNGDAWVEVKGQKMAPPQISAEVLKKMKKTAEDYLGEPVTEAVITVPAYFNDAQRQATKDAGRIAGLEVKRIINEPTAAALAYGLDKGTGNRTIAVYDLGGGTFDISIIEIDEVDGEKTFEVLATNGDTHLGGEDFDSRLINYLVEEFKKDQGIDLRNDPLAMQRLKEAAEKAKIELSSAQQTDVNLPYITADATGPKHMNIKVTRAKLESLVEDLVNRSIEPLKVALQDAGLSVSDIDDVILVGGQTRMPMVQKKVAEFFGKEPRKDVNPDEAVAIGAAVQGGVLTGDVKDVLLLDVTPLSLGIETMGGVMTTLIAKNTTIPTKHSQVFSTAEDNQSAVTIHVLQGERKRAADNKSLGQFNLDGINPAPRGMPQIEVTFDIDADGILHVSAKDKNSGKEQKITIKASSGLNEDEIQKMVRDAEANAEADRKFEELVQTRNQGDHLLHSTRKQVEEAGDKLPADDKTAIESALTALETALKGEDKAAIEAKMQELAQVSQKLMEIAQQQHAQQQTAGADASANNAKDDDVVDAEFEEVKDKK
Method: Inhibition of the bacterial DnaK chaperone system may be evaluated by inhibition of the DnaK induced refolding of denatured firefly luciferase. More specifically, firefly luciferase is denatured by treatment with 8N guanidium hydrochloride at room temperature for 30 mins and then 5° C. for 1 h. After dilution into cold MOPS buffer augmented with ATP (2.5 mM) and DTT (12.5 mM) and standing for a further hour, the denatured luciferase is refolded by addition to a mixture of chaperone proteins in MOPS buffer, resulting in a reaction mixture containing denatured luciferase (24 nM), DnaK (200 nM), DnaJ (100 nM) and GrpE (400 nM). The extent of refolding is determined by addition of a luciferase substrate and measurement of the emitted chemoluminescence. In this format the substrate is the commercially available luciferase “Steady-Glo” reagent from Promega, Inc. Inhibition of DnaK induced refolding is determined by premixing the chaperone proteins with the test agent at concentrations of test agent ranging from 1-100 μg/mL. The extent of refolding is compared to that with no test reagent, and the IC50 is estimated by fitting the data to a standard sigmoidal dose-response curve.
Inhibition of the bacterial DnaK chaperone system was evaluated by inhibition of the DnaK induced refolding of denatured firefly luciferase. Firefly luciferase was denatured by treatment with 8N guanidium hydrochloride at room temperature for 30 mins and then 5° C. for 1 h. After dilution into cold MOPS buffer augmented with ATP (2.5 mM) and DTT (12.5 mM) and standing for a further hour, the denatured luciferase was refolded by addition to a mixture of chaperone proteins in MOPS buffer, resulting in a reaction mixture containing denatured luciferase (24 nM), DnaK (200 nM), DnaJ (100 nM) and GrpE (400 nM). The extent of refolding was determined by addition of a luciferase substrate and measurement of the emitted chemoluminescence. In this format the substrate is the commercially available luciferase “Steady-Glo” reagent from Promega, Inc. Inhibition of DnaK induced refolding was determined by premixing the chaperone proteins with the test agent at concentrations of test agent ranging from 1-100 μg/mL. The extent of refolding was compared to that with no test reagent, and the IC50 was estimated by fitting the data to a standard sigmoidal dose-response curve.
IC50 is defined as the concentration in μM at which 50% inhibition of DnaK induced refolding of denatured firefly luciferase occurs.

[2] = test system: H. influenzae (Strain 109); experiment: H. influenzae Inhibition Assay (broth microdilution MIC), Strain 109; format: cell-based; settings: for MIC: Haemophilus influenzae
Method: (§1) An in vitro assay may be conducted by determining the minimum inhibitory concentration (MIC) of the small molecules to Gram negative bacteria, such as H. influenza. H. influenzae MICs are determined using CLSI recommended broth microdilution methodology (M7-A7). Test agent powders are dissolved in DMSO, serial dilutions are also made in DMSO and 1:100 dilutions of each are then prepared in Haemophilus Test media (HTM). 100 μL of each final dilution are transferred to appropriate wells of a 96 well microtiter plate. The test organism is suspended in saline or Mueller Hinton broth to an organism density equivalent to a 0.5 McFarland Standard. 300 μL of the H. influenzae suspension is transferred to 11 mLs of HTM and 10 μL of this suspension is transferred to each well of the microtiter plate. […] Colony counts are determined for each inoculum and expected range of final organism concentration is 3-7×10^5 CFU/mL. One of the recommended H. influenzae quality control strains (ATCC 49247 or 49766) is also tested on each testing day.
as §1, with “H.” for “An in vitro assay may be conducted by determining the minimum inhibitory concentration (MIC) of the small molecules to Gram negative bacteria, such as H. influenza. H.”
(§2) Pyrrhocoricin was used as a control. MIC is defined as the lowest concentration of an anti-bacterial agent that will inhibit the visible growth of a microorganism after overnight incubation.

[3] = test system: H. influenzae (Strain 110); experiment: H. influenzae Inhibition Assay (broth microdilution MIC), Strain 110; format: cell-based; settings: for MIC: Haemophilus influenzae
Method: as §1
as §1, with “H.” for “An in vitro assay may be conducted by determining the minimum inhibitory concentration (MIC) of the small molecules to Gram negative bacteria, such as H. influenza. H.”
as §2

[4] = test system: E. coli (ATCC 25922); experiment: Antibacterial activity against E. coli (MIC); format: cell-based
[5] = read-out: DnaK IC50(μg/ml) (converted)
[6] = Strain 109, HTM, 35° C., 20-24 hours, read-out: H. influenzae (Strain 109) MIC
[7] = Strain 110, HTM, 35° C., 20-24 hours, read-out: H. influenzae (Strain 110) MIC

| Compound | IC50 ([1]; read-out: DnaK IC50) [µM] | IC50 [1, 5] [µM] | MIC [2, 6] [µg/mL] | inhibition of H. influenzae strain 109 compared with the control pyrrhocoricin [2] | MIC [3, 7] [µg/mL] | DnaK IC50(μg/ml) [1] [µg/mL] | E. coli (ATCC 25922) MIC ([4]; ATCC 25922) [µg/mL] | MIC ([2]; read-out: H. influenzae (Strain 109) MIC (μg/ml)) [µg/mL] | MIC ([3]; read-out: H. influenzae (Strain 110) MIC (μg/ml)) [µg/mL] | inhibition of H. influenzae strain 110 compared with the control pyrrhocoricin ([3]; strain 110) | MIC ([4]; Escherichia coli, ATCC25922) [µg/mL] |
| --- | --- | --- | --- | --- | --- | --- | --- | --- | --- | --- | --- |
| COC(=O)[C@@H]1CCCN1C(=O)[C@H](CC(C)C)NC(=O)[C@H](Cc1ccc(F)cc1)NC(C)=O [Structure 10, Ac(4-F)Phe-Leu-Pro-OMe] (Ac-[Phe(4-F)]-Leu-Pro-OMe) | 26 | 127 | 32 (≈ 71.2 µM) | lower concentration than the control | > 128 | – | – | – | – | – | – |
| CCC(C)[C@H](NC(C)=O)C(=O)N[C@@H](CCCCNC(=O)OCc1ccccc1)C(=O)N1CCC[C@H]1C(=O)O (some centres unmarked) [Structure 22, Ac-Ile-Lys(Cbz)-Pro-OH] | 14 | 50.7 | 2 (≈ 3.75 µM) | lower concentration than the control | > 128 | – | – | – | – | – | – |
| CC(=O)N[C@@H](Cc1ccc(F)cc1)C(=O)N[C@@H](CC(C)C)C(=O)N1CCC[C@H]1C(=O)O [Structure 11] (Ac-[Phe(4-F)]-Leu-Pro-OH) | 69 | 363 | 4 (≈ 9.18 µM) | lower concentration than the control | > 128 | – | – | – | – | – | – |
| 3-(Octylamido)-nicotinoyl-Tyr(Bzl)-Leu-Pro-Arg-OMe trifluoroacetate [Structure 31] | 10 | – | – | – | – | 10 | 32 | – | – | – | – |
| COC(=O)[C@@H]1CCCN1C(=O)[C@H](CC(C)C)NC(=O)[C@H](Cc1ccc(OCc2ccccc2)cc1)NC(C)=O [Structure 2, Ac-Tyr(Bzl)-Leu-Pro-OMe] (Ac-Tyr(Bn)-Leu-Pro-OMe) | 63 | 219 | 32 (≈ 59.5 µM) | lower concentration than the control | > 128 | – | – | – | – | – | – |
| CC(=O)N[C@@H](Cc1ccc(OCc2ccccc2)cc1)C(=O)N[C@@H](CC(C)C)C(=O)N1CCC[C@H]1C(=O)O [Structure 3, Ac-Tyr(Bzl)-Leu-Pro-OH] (Ac-Tyr(Bn)-Leu-Pro-OH) | 110 | 399 | – | surpasses that of pyrrhocoricin | – | – | – | 32 (≈ 61.1 µM) | 64 (≈ 122 µM) | surpasses that of pyrrhocoricin | – |
| CCCCCCCC(=O)N[C@H](Cc1ccc(OCc2ccccc2)cc1)C(=O)N[C@@H](CC(C)C)C(=O)N1CCC[C@H]1C(=O)N[C@H](CCCNC(=N)N)C(=O)OC [Structure 25, Octanoyl-(D)-Tyr(Bzl)-Leu-Pro-Arg-OMe trifluoroacetate] (Octanoyl-[dY](Bn)LP[dR]-OMe) | 20 | 23.1 | – | – | – | – | – | – | – | – | 128 |
